Data on three compounds can be found in patent US20140057865A1, “ANALYSIS OF NODES IN CELLULAR PATHWAYS” (Nodality, Inc., priority 2009, published 2014).

“Also recorded” adds a separate entry of the source.

Data set [1] deals with U937 cells. Description: Cell cycle progression and cell death by DAPI staining and scatter. The format is cell-based, human. The settings on record: Vidaza 2.5 μM, Dacogen 0.625 μM, 20 hours. The method, then:
(§1) FIGS. 9 and 10 show an embodiment of the invention used to analyze the effects of the DNA methyltransferase inhibitor drugs Vidaza® cytidine analog and Dacogen® cytidine analog on cultured U937 cells. See Example 1 in U.S. Ser. No. 61/120,320 for detailed cell culture, staining, and flow cytometry protocols similar to those used in this example. Here, to analyze the effects of Vidaza® cytidine analog and Dacogen® cytidine analog on cell cycle progression and cell death, U937 cells were treated with Vidaza® cytidine analog (5-Azacytidine) at a concentration of 2.5 μM, or Dacogen® cytidine analog (5-Aza-2′-deoxycytidine) at a concentration of 0.625 μM. The cells were continuously incubated with the drugs for 20 hours in 10% FBS RPMI, fixed, permeabilized, and then stained with DAPI, or stained with DAPI and immunolabeled with antibodies against DMNT 1.
(§2) (See Alberts et al., Molecular Biology of the Cell, 4th Ed., Chapter 17 for an overview of the cell cycle). […] Additionally, the experimental results in this example may be used to identify therapeutic agents that can be used in combination with either Vidaza® cytidine analog or Dacogen® cytidine analog. […]

The test system of the next data set is DNMT1. The data set can be described thus: DNMT1 expression by immunolabeling, flow cytometry. The settings on record: U937 cells, Vidaza 2.5 μM, 20 hours. It counts as cell-based, human. The method, then:
as §1, §2
In general terms: Flow cytometry measures light scatter and fluorescence of single cells or particles in a stream.

The test system of data set [2] is healthy bone marrow mononuclear cells. The data set can be described thus: Cell cycle nodes by flow cytometry, ON01910.Na titration. It counts as cell-based. The method, then: (§3) In the example, erythroblast (TF-1) and U937 cell lines, as well as healthy bone marrow mononuclear cells, were treated with a test modulator (ON01910.Na) over several dilutions for 24 hours. Flow cytometry was used to obtain multiple intracellular readouts or nodes, including levels of protein phosphorylation, levels of protein expression, cell size and shape, and DNA content.
(§4) The findings shown in FIGS. 4 through 7 were tested in other cell types.

For data set [3] the test system is unchanged. The data set can be described thus: Viability of healthy BMMCs, ON01910.Na titration. It counts as cell-based. On the procedure:
as §3, §4

A further data set has as its system TF-1 cells. The data set can be described thus: Cell cycle nodes (p-Cdk1 Y15, p-Histone H3 S28, Cyclin B1) by flow cytometry. It counts as cell-based, human. On the procedure:
as §3
FIGS. 4-6 show the effects of two concentrations of ON01910.Na on different markers or nodes whose activation status correlates with cell cycle progression. […] Cdk1 activation normally occurs at the end of G2, so increased Cdk1 levels […] at tyrosine 15 are consistent with cell cycle arrest in G2 or early M phases (See Alberts et al, Molecular Biology of the Cell, 4th Ed., Chapter 17 for a detailed discussion of the cell cycle).
Phosphorylation of histone H3 is a marker of chromatin condensation and entry into M phase (See Alberts et al, Molecular Biology of the Cell, 4th Ed., FIG. 4-35 for discussion of histone modifications). Continuous treatment with ON01910.Na for 24-hours enhances H3 (Ser28) phosphorylation. The effects of these two doses on the node state (serine 28 phosphorylation of H3) are detectable using flow cytometry. […] FIG. 7 presents a summary of the effects of ON01910.Na treatment on the Cyclin B1, p-Cdk1 Y15, and pH3 S28 cell cycle nodes.

For data set [4], the system named is erythroblast (TF-1) cell line. The data set can be described thus: Cell death by forward and side scatter of light. It counts as cell-based, human. Particulars: TF-1 erythroblasts, 24 and 48-hour continuous treatment.
Excerpt: In some embodiments of the invention, the activatible elements may function in cell death, including apoptosis or necrosis. A person of ordinary skill in the art may analyze cell death using stains, biomarkers, assays, or kits to identify node states associated with cell cycle progression and cell death without departing from the scope of the invention. By way of example, stains used to identify cell death include, but are not limited to amine aqua, propidium iodide, 4′,6-diamidino-2-phenylindole (DAPI), bromodeoxyuridine (BrdU), acridine orange, SYTOX, and TUNEL. A person of ordinary skill in the art will appreciate that several of the aforementioned stains, such as DAPI, may also be used to determine the cell cycle of a single cell or population of cells. Cell death may also be identified using the forward versus side scatter dot plots obtained during flow cytometry.
as §3

For data set [5], the system named is U937 cells. Description: Cell cycle nodes by flow cytometry, ON01910.Na titration. The format is cell-based, human. The method, then: as §3, §4
The subject of data set [6] is erythroblast (TF-1) cell line. The data set can be described thus: DNA content by DAPI staining, flow cytometry. It counts as cell-based, human. The settings on record: for cell cycle arrest and cell death by DNA content (sub-2n through 4n, DAPI staining): TF-1 erythroblasts, several dilutions, 24 hours.
Excerpt: DNA content can be directly monitored using fluorescent dyes that bind DNA in the major or minor groove. This labeled DNA can be detected and cellular DNA content can be determined using flow cytometry or other methods as described below. DNA content can be used to indicate the status of a cell or population of cells. The effect of a compound on both the cell cycle and cell death pathways can be determined by monitoring changes in DNA content within a single cell or a population of cells. For example, cell cycle arrest in G1 or G2/M phases of the cell cycle may appear as an increase in 2n or 4n DNA content respectively while an increase in cell death may appear as an increase in sub-2n DNA content.
as §3

The mark [7] stands for this setting: TF-1 erythroblasts, two concentrations, 24 hours continuous.

For the compound `Nc1ncn([C@@H]2O[C@H](CO)[C@@H](O)[C@H]2O)c(=O)n1` [Vidaza, 5-Azacytidine], the “effect on cell cycle progression and cell death (DAPI frequency plots, scatter)” value with U937 cells [1] is listed as “increased cell death; also recorded: inducing cell death”. The “expression of DNMT1” value with DNMT1 is “decreased expression; also recorded: mediates a decrease in DNMT1”.

In the case of `COc1cc(OC)c(/C=C/S(=O)(=O)Cc2ccc(OC)c(NCC(=O)[O-])c2)c(OC)c1.[Na+]` [ON01910.Na], the “cycling bone marrow mononuclear cells as measured by p-Cdk1 Y15” value in data set [2] (BMMCs) is listed as “dose dependent decrease of cycling bone marrow mononuclear cells”. Besides, the “Cyclin B1 expression levels” value in data set [2] (healthy BMMCs) is “Cyclin B1 expression levels increase”. Besides, the “viability of healthy bone marrow mononuclear cells” value in data set [3] was “does not significantly alter viability”. Further, in the data set with TF-1 cells (TF-1 cells, various concentrations, 24 hours), the “cell cycle arrest indicated by Cyclin B1, p-Cdk1 Y15 and pH3 S28 nodes” value is given as “arrest in the G2 or M phases of the cell cycle in a dose dependent manner”. For the same compound, the “Cyclin B1 expression” value in the data set on TF-1 cells (TF-1 erythroblasts, increased concentration) is recorded as “more cells express Cyclin B1; also recorded: mediates an increase in cyclin B1”. Moreover, in the data set with TF-1 cells (setting [7]), the “p-Cdk1 Y15 phosphorylation” value is “increases dephosphorylation of p-Cdk1 at tyrosine 15; also recorded: mediates dephosphorylation of p-Cdk1^Y15” and the “p-Histone H3 S28 phosphorylation” value is recorded as “histone 3 serine 28 phosphorylation increases; also recorded: mediates an increase in p-HistoneH3^S28”. In addition, the “cell death by scatter properties” value in data set [4] is “induce cell death, with a greater magnitude of cell death observed following longer treatment and higher dose; also recorded: induces cell death in erythroblasts”. Further, in data set [4] (listed as ON-01910.Na), the “cell death by scatter properties” value is reported as “induces cell death”. Further, the “changes in cell cycle signaling molecules” value with U937 cells [5] is recorded as “simultaneous changes in cell cycle signaling molecules at the same drug concentration”. Further, in the data set with U937 cells [5] (24 hours), the “expression of Cyclin B1” value is reported as “increased”, the “phosphorylation of Cdk1” value is given as “decreased phosphorylation of Cdk1” and the “phosphorylation of H3” value is reported as “increased phosphorylation of H3”. For the same compound, the “4n DNA content peak” value in data set [6] (TF-1 cells, 0.12 μM and 0.37 μM) was “increases in a dose-dependent manner”. Also, the “cell cycle arrest and cell death by DNA content (sub-2n through 4n, DAPI staining)” value in data set [6] is “induces arrest in G2/M and cell death in a dose-dependent manner”. Further, in data set [6] (listed as ON-01910.Na), the “cell cycle arrest and cell death by DNA content (sub-2n through 4n, DAPI staining)” value was “induces arrest in G2/M and cell death”.

With `Nc1ncn([C@H]2C[C@H](O)[C@@H](CO)O2)c(=O)n1` [Dacogen, 5-Aza-2′-deoxycytidine], in the data set with U937 cells [1], the “effect on cell cycle progression and cell death (DAPI frequency plots, scatter)” value was “S phase cell cycle arrest; also recorded: inducing arrest at S phase”.
